The values that follow come from paper PMC7904743, “WIDOCK: a reactive docking protocol for virtual screening of covalent inhibitors” (Journal of Computer-Aided Molecular Design, 2021).

Data set [1] can be described thus: Kinetic measurement of adduct formation with L-glutathione (GSH) by HPLC–MS. It counts as physicochemical. On the set-up: unit not given here. How it is done: Electrophilic fragments tested against MurA, CatB and MAO-A (25–53, structures shown in Supporting Figure S2 and SMILES provided in Supporting Table S1) represent eight different warhead chemotypes reacting via two reaction mechanisms: Michael-type nucleophilic addition and nucleophilic substitution. The intrinsic thiol reactivities (see Table 1) were determined by kinetic measurement of adduct formation with L-glutathione (GSH), a widely used cysteine surrogate, by an HPLC–MS methodology, as described in the referred study.

In data set [2] the target is T1, Recombinant human microsomal MAO-A (Homo sapiens, UniProt P21397).
T1 construct: purchased Sigma Aldrich; host or cells: baculovirus infected insect cells (BTI-TN-5B1-4)
T1 sequence (P21397 1-527): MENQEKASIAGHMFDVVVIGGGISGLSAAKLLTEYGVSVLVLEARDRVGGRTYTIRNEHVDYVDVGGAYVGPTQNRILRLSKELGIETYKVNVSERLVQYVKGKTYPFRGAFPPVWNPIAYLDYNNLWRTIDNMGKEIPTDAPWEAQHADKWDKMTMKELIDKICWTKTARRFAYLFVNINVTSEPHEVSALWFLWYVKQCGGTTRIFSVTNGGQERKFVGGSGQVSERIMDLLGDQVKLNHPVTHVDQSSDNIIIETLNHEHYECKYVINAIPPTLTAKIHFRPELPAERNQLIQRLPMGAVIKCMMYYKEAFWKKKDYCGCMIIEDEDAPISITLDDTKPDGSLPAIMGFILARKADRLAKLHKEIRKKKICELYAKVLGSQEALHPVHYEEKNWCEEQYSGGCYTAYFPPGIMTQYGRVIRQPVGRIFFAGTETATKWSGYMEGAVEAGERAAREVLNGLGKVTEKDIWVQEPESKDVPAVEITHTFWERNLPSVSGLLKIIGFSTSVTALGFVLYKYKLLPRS
Nature of the data set: MAO-A activity assay (fluorimetric, Amplex Red, p-tyramine). It counts as biochemical. The following applies: MAO-A residual activity; active if lower than 60%. How it is done:
The effects of the test compounds on MAO-A were investigated using a fluorimetric assay, following a previously described methodology. The inhibitory activity of the compounds was evaluated by their effects on the production of hydrogen peroxide (H2O2) from p-tyramine. The production of H2O2 was detected using Amplex Red reagent in the presence of horseradish peroxidase, where a highly sensitive fluorescent product, resorufin, is produced at stoichiometric amounts. Recombinant human microsomal MAO-A enzyme expressed in baculovirus infected insect cells (BTI-TN-5B1-4), horse-radish peroxidase (type II, lyophilized powder), and p-tyramine hydrochloride were obtained from Sigma Aldrich. 10-Acetyl-3,7-dihydroxyphenoxazine (Amplex Red reagent) was synthesized as described in the literature.
Briefly, 100 µL 50 mM sodium phosphate buffer (pH 7.4, 0.05% Triton X-114) containing the compounds and MAO-A were incubated for 30 min at 37 °C in a flat-bottomed black 96-well microplate, and placed in a dark microplate reader chamber. After the pre-incubation, the reaction was started by adding the final concentrations of 200 µM Amplex Red reagent, 2 U/mL horseradish peroxidase, and 1 mM p-tyramine (final volume, 200 µL). The production of resorufin was quantified based on the fluorescence generated (λex = 530 nm, λem = 590 nm) at 37 °C over a period of 30 min, during which time the fluorescence increased linearly. For control experiments, DMSO was used instead of the appropriate dilutions of the compounds in DMSO. To determine the blank value (b), phosphate-buffered solution replaced the enzyme solution. The initial velocities were calculated from the trends obtained, with each measurement carried out in duplicate. The specific fluorescence emission to obtain the final result was calculated after subtraction of the blank activity (b).

Data set [3] has as its target T2, MurA (Escherichia coli, UniProt P0A749). The following applies: residual activity at 100 μM, single point; cited from earlier work.
Data set [4] has as its target T3, CatB (Homo sapiens, UniProt P07858). Details: method as in PMID 30321804. The following applies: residual activity at 100 μM, single point; cited from earlier work.
For data set [5] the following is noted: cited from earlier work; for GSH half-life: half-life of adduct formation with L-glutathione.
Data set [6] addresses T2, MurA. Nature of the data set: biochemical. Particulars: read-out: RA.
Protocol: (§1) These fragments were measured in single point enzyme activity assays at 100 μM concentration against MurA and CatB.
Data set [7] concerns the target T3, CatB. The data set is described as follows: CatB single point enzyme activity assay (residual activity). The following applies: read-out: RA.
Protocol: as §1

Some results are limits rather than exact numbers.

T2 sequence (P0A749 whole entry): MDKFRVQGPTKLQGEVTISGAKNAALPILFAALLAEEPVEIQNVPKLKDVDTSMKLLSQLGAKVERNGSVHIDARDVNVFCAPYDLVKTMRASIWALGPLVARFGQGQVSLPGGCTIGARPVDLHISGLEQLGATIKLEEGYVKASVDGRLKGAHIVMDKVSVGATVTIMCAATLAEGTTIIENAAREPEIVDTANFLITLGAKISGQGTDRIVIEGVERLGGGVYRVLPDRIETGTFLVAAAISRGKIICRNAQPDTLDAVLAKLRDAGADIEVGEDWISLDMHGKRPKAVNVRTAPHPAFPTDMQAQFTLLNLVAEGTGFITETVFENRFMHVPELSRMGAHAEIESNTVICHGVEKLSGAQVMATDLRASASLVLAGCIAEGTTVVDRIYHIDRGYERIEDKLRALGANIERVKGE

In the case of `C/C=C/C(=O)OC` [Compound 26, C/C=C/C(=O)OC], the “Reactivity, Experimental ln(k) vs GSH” value in data set [1] was -3.401. For the same compound, in data set [2], the RA worked out at 68%. For the same compound, the “MurA RA (%)” value at MurA [3] was 41%. The “CatB RA (%)” value at CatB [4] is listed as 97%. Besides, in data set [5], the “GSH half-life” value is 20.8 h. For the same compound, the remaining activity at 100 µM on MurA [6] was determined as 41%; on CatB [7], 97%.

Consider `CCOC(=O)/C=C/c1ccccc1` [Compound 27, CCOC(=O)/C=C/c1ccccc1], for which the “Reactivity, Experimental ln(k) vs GSH” value in data set [1] was -4.242. In addition, in data set [2], the RA is 97%. The “MurA RA (%)” value at MurA [3] was 92%. Moreover, the “CatB RA (%)” value at CatB [4] is 79%. Besides, the “GSH half-life” value in data set [5] is on record as 48.2 h. In addition, the remaining activity at 100 µM on MurA [6] is 92%; at CatB [7], 79%.

`C=CC(=O)N(C)C` [Compound 29, C=CC(=O)N(C)C]: the “Reactivity, Experimental ln(k) vs GSH” value in data set [1] is reported as -5.211. Also, in data set [2], the RA was found to be 75%. The “MurA RA (%)” value at MurA [3] is 95%. In addition, at CatB [4], the “CatB RA (%)” value is 75%. For the same compound, the “GSH half-life” value in data set [5] is recorded as 127 h. Moreover, the remaining activity at 100 µM was found to be 95% at MurA [6] and 75% at CatB [7].

Turning to `C=CC(=O)Nc1ccccc1` [Compound 30, C=CC(=O)Nc1ccccc1], the RA in data set [2] is reported as 99%. In addition, the “MurA RA (%)” value at MurA [3] is recorded as 78%. Further, the “CatB RA (%)” value on CatB [4] is 88%. In addition, the values for the remaining activity at 100 µM at MurA [6] and at CatB [7] were 78% and 88%, respectively.

Regarding `C=CS(=O)(=O)c1ccccc1` [Compound 34, C=CS(=O)(=O)c1ccccc1], in data set [2], the RA is on record as 52%. On MurA [3], the “MurA RA (%)” value is listed as 12%. The “CatB RA (%)” value on CatB [4] was 87%. The lnk in data set [5] ([…]) is 1.45. Also, the figures for the remaining activity at 100 µM at MurA [6] and at CatB [7] were 12% and 87%, respectively.

As to `O=S(=O)(/C=C/c1ccccc1)c1ccccc1` [Compound 35, O=S(=O)(/C=C/c1ccccc1)c1ccccc1], the “Reactivity, Experimental ln(k) vs GSH” value in data set [1] is -4.913. Moreover, in data set [2], the RA was 87%. The “MurA RA (%)” value at MurA [3] was 82%. Further, on CatB [4], the “CatB RA (%)” value is reported as 77%. Further, the “GSH half-life” value in data set [5] is 94.3 h. Moreover, the figures for the remaining activity at 100 µM at MurA [6] and at CatB [7] were 82% and 77%, respectively.

For the compound `CCOC(=O)C#Cc1ccccc1` [Compound 36, CCOC(=O)C#Cc1ccccc1], in data set [1], the “Reactivity, Experimental ln(k) vs GSH” value was -1.906. Moreover, the RA in data set [2] is recorded as 94%. The “MurA RA (%)” value on MurA [3] is 75%. The “CatB RA (%)” value at CatB [4] is reported as 70%. For the same compound, the “GSH half-life” value in data set [5] is given as 4.66 h. Further, the values for the remaining activity at 100 µM on MurA [6] and on CatB [7] were 75% and 70%, respectively.

For the compound `CC#CC(=O)OCC` [Compound 37, CC#CC(=O)OCC], the “Reactivity, Experimental ln(k) vs GSH” value in data set [1] was -3.194. The RA in data set [2] is 84%. Further, the “MurA RA (%)” value on MurA [3] was 82%. Besides, the “CatB RA (%)” value at CatB [4] is reported as 84%. Further, the “GSH half-life” value in data set [5] is 16.9 h. The remaining activity at 100 µM at MurA [6] is 82%; at CatB [7] it was 84%.

For the compound `CN1C(=O)C=CC1=O` [Compound 38, CN1C(=O)C=CC1=O], in data set [1], the “Reactivity, Experimental ln(k) vs GSH” value came out at 1.936. Also, the RA in data set [2] came out at 5%. Besides, the “MurA RA (%)” value on MurA [3] is 1%. Besides, the “CatB RA (%)” value on CatB [4] was 91%. Moreover, in data set [5], the “GSH half-life” value is given as < 0.1 h. Moreover, the remaining activity at 100 µM stood at 1% at MurA [6] and 91% on CatB [7].

`O=C(CCl)Nc1ccccc1` [Compound 48, O=C(CCl)Nc1ccccc1]: the RA in data set [2] is 95%. Also, the “MurA RA (%)” value at MurA [3] is 110%. Also, the “CatB RA (%)” value on CatB [4] is on record as 88%. Moreover, the remaining activity at 100 µM at MurA [6] was found to be 110%; at CatB [7], 88%.
